This is an account of results in publication PMC11215778 (Journal of Medicinal Chemistry, 2024).

Each structure is given as a SMILES string. Read-outs that look alike come from different tables or passages of the source.

One data set deals with T1, ADRA1A (Homo sapiens, UniProt P35348).
T1 sequence (P35348 1-466): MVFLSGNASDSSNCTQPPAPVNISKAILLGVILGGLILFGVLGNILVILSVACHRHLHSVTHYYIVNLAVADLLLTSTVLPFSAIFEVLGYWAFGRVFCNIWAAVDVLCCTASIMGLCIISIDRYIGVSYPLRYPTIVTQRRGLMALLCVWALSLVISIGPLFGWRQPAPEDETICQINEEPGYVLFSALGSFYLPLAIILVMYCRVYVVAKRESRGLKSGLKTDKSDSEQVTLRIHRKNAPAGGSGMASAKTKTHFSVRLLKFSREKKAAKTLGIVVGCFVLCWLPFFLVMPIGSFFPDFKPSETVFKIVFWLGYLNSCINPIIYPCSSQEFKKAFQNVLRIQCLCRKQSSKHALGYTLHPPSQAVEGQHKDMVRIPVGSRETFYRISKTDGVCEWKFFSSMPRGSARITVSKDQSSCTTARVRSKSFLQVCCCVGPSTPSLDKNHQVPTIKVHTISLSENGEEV
The settings on record: read-out: ADRA1A IC50; antagonist activity, receptor stimulated with EC80 of epinephrine, Chem-1 cells.

Data set [1] can be described thus: Cytotoxicity assay (CellTiter-Glo) on normal human dermal fibroblasts. The settings on record: normal human dermal fibroblasts (NHDF). Format: cell-based. On the procedure: The cytotoxicity of the compounds was evaluated in nontumor normal human dermal fibroblasts (NHDF) purchased from ATCC (PCS-201-012, Manassas, VA, USA). The cells were negatively tested for the presence of mycoplasma (cat. #: LT07-318 MycoAlert Mycoplasma Detection kit, Lonza). The cells were cultivated in DMEM high glucose 4.5 g/L medium (cat. #: R8758, Merck, Germany). The medium was supplemented with 10% fetal bovine serum (cat. #: F7524, Merck, Germany; inactivated at 56 °C for 30 min) and 1.0% of L-glutamine (cat. #: G7513, Merck, Germany) without antibiotics. Cells were seeded in 384-well format white micro plates (cat. #: 164610, Nunc, Thermo Fisher Scientific, USA) at a concentration of 60,000 cells per mL and left to rest overnight. Next day, 1 and 10 μM concentrations of the tested compounds were added in triplicates. The cells were cultivated at 37 °C and 5% CO2 for 72 h after which a luminescent cell viability assay (CellTiter-Glo 2.0, cat. #: Promega, Madison, USA) was added. The plate was left on a shaker (350 rpm) in the dark for 20 min at RT. Luminescence was measured by a Spark multimode reader from Tecan (Tecan Group Ltd., Switzerland). The signal of the compound-treated cells was related to the value of the untreated control, which was arbitrarily set to 100% viability.
For orientation: Cellular ATP, detected with luciferase, serves as a proxy for viable cell number.

Data set [2] in a line: Microsomal stability, human liver microsomes. Format: in vitro ADME. The settings on record: pooled liver microsomes, pH 7.4, read-out: Microsomal stability CLint, hum. On the procedure:
(§1) . Zero time points were prepared by adding ice-cold methanol to a mixture of the compound with cofactors prior to the addition of microsomes. […]. Intrinsic clearance (CLint) was calculated using the following formula: [drawing 1] where V = incubation volume per milligram of microsomal protein (μL/mg) and t1/2 = microsomal half-life.
(Liver microsomes are vesicles of endoplasmic reticulum, rich in cytochrome P450 enzymes.)

Data set [3] is described as follows: Microsomal stability, rat liver microsomes. The note with it: pH 7.4. Format: in vitro ADME. Here is the method: as §1
Data set [4] can be described thus: Plasma stability assay, rat plasma. Type of data set: in vitro ADME.
A short description of data set [5]: Plasma stability assay, human plasma. Type of data set: in vitro ADME. The note with it: pooled plasma, read-out: Plasma stability % remaining at 6 h, hum. On the procedure:
[…] The reactions were terminated by adding 4 vol of ice-cold methanol, and the samples were then mixed vigorously, frozen at −20 °C for 1 h, and left overnight at 8 °C. After that, the samples were centrifuged, and the supernatant was analyzed by means of LC–MS/MS Sciex 6500 triple quadrupole (Sciex, Framingham, MA, USA). Zero time points were prepared by adding ice-cold methanol to the compound prior to the addition of the plasma.

Data set [6] can be described thus: in vitro. The note with it: dog, MDCK-MDR1.
Experimental: (§2) Canine MDR1 Knockout, Human MDR1 Knockin MDCKII cells (Sigma-Aldrich) were employed to estimate CNS permeability of the compounds. Briefly, the cells were seeded at a density of 30,000 cells per 24-well plate insert of the Transwell sandwich (CellQART, SABEU GmbH&Co.KG, Germany). They were left to differentiate for 5 days with medium exchange every other day. […] The treated cells were then returned to the incubator for 2 h at 37 °C. After that, samples were collected from both apical inserts and basolateral wells and analyzed using LC–MS (Triple Quad 6500+, Sciex). LY permeation was used to check for the integrity of monolayer in each sample. […] Only wells displaying LY permeability <2% were qualified for compound transport quantification. Apparent permeability coefficients (Papp's), efflux ratios, and recoveries for the compounds were calculated as described in Section 4.2.8. The data represent means ± SD of two independent experiments performed in triplicate.
A further data set deals with P-gp (human MDR1). Description: in vitro. The settings on record: dog, MDCK-MDR1.
The nature of data set [7]: in vitro. The settings on record: human, Caco-2. Type of data set: in vitro ADME. Here is the method: A Transwell system consisting of two compartments separated by a monolayer of differentiated Caco-2 cells was employed for the intestinal permeability evaluation. Thanks to the ability of Caco-2 cells to become polarized, bidirectional transport (A–B and B–A) could be measured and the efflux ratio calculated.
The transepithelial bidirectional transport of tested compounds (5 μM, pH 7.4/7.4) across the Caco-2 monolayers was studied using the BD BioCoat HTS Caco-2 assay system (BD Biosciences, Bedford, MA) as described in detail elsewhere.[47] Aliquots were collected from the donor and acceptor compartment at the end of the transport period (3 h), the integrity of monolayers was verified using Lucifer Yellow dye, and the compounds were quantified using LC–MS/MS (Triple Quad 6500+, Sciex). The apparent permeability coefficient (Papp) was calculated from the following equation: Papp = (dQ/dt)/C0 × A, where dQ/dt is the rate of absorption of the drug across the cells, C0 is the donor compartment concentration at time zero, and A is the area of the monolayer. The efflux ratio was expressed as (Papp B–A)/(Papp A–B). Recovery (%) was determined as (total compound mass in donor and receiver compartments at the end of the incubation/initial compound mass in the donor compartment) × 100.

For a further data set, the system named is D3 receptor. The note with it: cited from earlier work.
The target of a further data set is D2 receptor. The note with it: cited from earlier work.
Where [8] appears, read: 10 μM, untreated control = 100%, read-out: NHDF Viability 10 μM.
Setting [9] is: human liver microsomes 0.5 mg/mL, 10 μM compound.
The mark [10] stands for this setting: 10 uM, read-out: NHDF viability at 10 uM (supplement csv).

Experimental for ADRA1A: All prepared compounds were tested for their antagonistic activity using calcium flux assays on cells overexpressing the ADRA2A or ADRA1A adrenergic receptor as a primary screen (Table 2).
Chem-1 cells overexpressing ADRA2A or 1A adrenergic receptors were purchased from Merck Millipore (cat. #: HTS096RTA and HTS087RTA; Merck, Germany). The cells were cultured according to the manual. […] After 30 min of incubation with the assay buffer at 37 °C and 5% CO2, the cells were incubated at RT in a dark place for another 15 min. […] All compounds were added by an Agilent Bravo Automated Liquid Handling Platform (Agilent Technologies, USA). […] Before each kinetic measurement, the background fluorescence (F0) was measured, and the result was calculated as (Fmax – F0)/F0.
Experimental for MDCKII-MDR1 cells: as §2
Experimental for P-gp (human MDR1): as §2

In the case of `O=C(O[C@H]1CCOC1)[C@@H]1[C@H]2C[C@H]3c4[nH]c5ccccc5c4CCN3C[C@@H]2CC[C@@H]1O` [Compound 4q, 17-α-Hydroxyyohimban-16-α-carboxylic Acid (S)-Tetrahydrofuran-3-yl Ester], the IC50 (commonly the concentration needed to halve the response being measured) on ADRA1A amounted to 0.537 µM. For the same molecule, the viability (as a rule, a read-out of living cells in per cent, often relative to untreated cells) at 72 h, 10 µM in [1] (setting [8]) was 112%. The microsomal CLint – broadly, a measure of how fast metabolising enzymes remove a compound, apart from limits set by blood flow – at 10 µM was 15 ± 1 µL/min/mg in [2] (setting [9]) and 5 ± 1 µL/min/mg in data set [3] (rat liver microsomes). In addition, the share remaining at 6 h, 5 μM in data set [4] turned out to be 102 ± 1%; in [5] (human plasma, 5 μM, 37 °C) it was 118%.
For `O=C(OC1COC1)[C@@H]1[C@H]2C[C@H]3c4[nH]c5ccccc5c4CCN3C[C@@H]2CC[C@@H]1O` [Compound 4r, 17-α-Hydroxyyohimban-16-α-carboxylic Acid Oxetan-3-yl Ester], at ADRA1A, the IC50 amounted to 1.94 µM. In addition, in [1] (setting [10]), the viability at 72 h, 10 µM came to 102%. In addition, the microsomal CLint at 10 µM in data set [2] (human) came to 16 ± 1 µL/min/mg; in [3] (rat, liver microsomes), 2 ± 1 µL/min/mg. In addition, the share remaining at 6 h, 5 μM in data set [4] was determined as 89 ± 1%; in [5] (human), 94 ± 14%.
Turning to `CCOC(=O)[C@@H]1[C@H]2C[C@H]3c4[nH]c5ccccc5c4CCN3C[C@@H]2CC[C@@H]1O` [Compound 3a, 17-α-Hydroxyyohimban-16-α-carboxylic Acid Ethyl Ester], the 50% inhibitory concentration (IC50) at ADRA1A was determined as 3.34 µM. Further, in data set [1], the viability at 72 h, 1 µM is 111%. The viability at 72 h, 10 µM in data set [1] (setting [10]) and in data set [1] (setting [8]) was 108% each time. Further, the values for the microsomal CLint at 10 µM in data set [2] (setting [9]) and in [3] (rat liver microsomes) were 14 µL/min/mg and 3 µL/min/mg, respectively. The fraction remaining at 6 h, 5 μM stood at 52% in data set [4] and 109 ± 1% in data set [5] (human plasma, 5 μM, 37 °C).
On to `N[C@H]1C[C@H](OC(=O)[C@@H]2[C@H]3C[C@H]4c5[nH]c6ccccc6c5CCN4C[C@@H]3CC[C@@H]2O)C1` [Compound 4n, 17-α-Hydroxyyohimban-16-α-carboxylic Acid trans-3-Aminocyclobutyl Ester], for which the “recovery (B–A) in MDCKII-MDR1 cells” value with MDCKII-MDR1 cells (B–A direction) is 98%. Moreover, in the data set on MDCKII-MDR1 cells (MDCKII-MDR1 cells), the P-gp transporter substrate result is on record as “substrate for the P-gp transporter”. Besides, the viability at 72 h, 1 µM in [1] was 93%. The viability at 72 h, 10 µM in data set [1] (setting [10]) and in data set [1] (setting [8]) was 89% throughout. In the data set “in vitro [6]”, this molecule showed a recovery at 2 h, 10 µM of 100%. Moreover, the apparent permeability from apical to basolateral (Papp A→B) (in general, the apparent permeability from the apical to the basolateral side of a cell layer) at 2 h, 10 µM with P-gp (human MDR1) came out at 0.9 ×10⁻⁶ cm/s. Further, in the data set on P-gp (human MDR1), the basolateral-to-apical permeability (Papp B→A) – broadly, the apparent permeability from the basolateral to the apical side of a cell layer – at 2 h, 10 µM stood at 3.5 ± 1.4 ×10⁻⁶ cm/s. For the same molecule, the recovery at 3 h, 5 µM in the data set “in vitro [7]” stood at 103%. Also, in the data set “in vitro [7]” (5 μM, pH 7.4/7.4, 3 h, read-out: Caco-2 permeability Papp A–B), the apical-to-basolateral permeability (Papp A→B) at 3 h, 5 µM was 3 ± 1 ×10⁻⁶ cm/s. Moreover, the intrinsic clearance (microsomal CLint) at 10 µM in data set [2] (setting [9]) came out at 2 ± 1 µL/min/mg. In addition, the amount remaining at 6 h, 5 μM stood at 84 ± 2% in data set [4] and 99% in [5] (human plasma, 5 μM, 37 °C).
On to `CN1CC[C@H](OC(=O)[C@@H]2[C@H]3C[C@H]4c5[nH]c6ccccc6c5CCN4C[C@@H]3CC[C@@H]2O)C1` [Compound 4p, 17-α-Hydroxyyohimban-16-α-carboxylic Acid (S)-N-Methylpyrrolidin-3-yl Ester], for which the concentration for half-maximal inhibition (IC50) on ADRA1A is 3.82 µM. In addition, the viability at 72 h, 1 µM in [1] was 88%. Further, the viability at 72 h, 10 µM in [1] (setting [10]) and in data set [1] (setting [8]) was 80% throughout. Moreover, the intrinsic metabolic clearance (microsomal CLint) at 10 µM in [2] (setting [9]) was 10 µL/min/mg; in [3] (rat liver microsomes), 1 ± 1 µL/min/mg. Further, the share remaining at 6 h, 5 μM came to 85 ± 2% in data set [4] and 109 ± 2% in [5] (human plasma, 5 μM, 37 °C).
Consider `CC(C)OC(=O)[C@@H]1[C@H]2C[C@H]3c4[nH]c5ccccc5c4CCN3C[C@@H]2CC[C@@H]1O` [Compound 3b, 17-α-Hydroxyyohimban-16-α-carboxylic Acid Isopropyl Ester], for which the IC50 at ADRA1A stood at 4.16 µM. In addition, the viability at 72 h, 1 µM in [1] came out at 108%. The viability at 72 h, 10 µM in data set [1] (setting [10]) and in [1] (setting [8]) was 102% in each case. Also, the figures for the microsomal CLint at 10 µM in [2] (setting [9]) and in [3] (rat liver microsomes) were 17 ± 1 µL/min/mg and 3 ± 1 µL/min/mg, respectively. The amount remaining at 6 h, 5 μM in data set [4] amounted to 89%; in data set [5] (human plasma, 5 μM, 37 °C), 102%.
Regarding `COC(=O)[C@@H]1[C@H]2C[C@H]3c4[nH]c5ccccc5c4CCN3C[C@@H]2CC[C@@H]1O` [Compound 1, Yohimbine, reference compound], the viability at 72 h, 1 µM in [1] is 112%. Further, the viability at 72 h, 10 µM in data set [1] (setting [10]) and in [1] (setting [8]) was 105% in each case. Further, in “in vitro [7]” (5 μM, pH 7.4/7.4, 3 h, read-out: Caco-2 permeability Papp B–A), the Papp B→A at 3 h, 5 µM was 23 ± 8 ×10⁻⁶ cm/s. Moreover, the “affinity toward the D3 receptor” value with D3 receptor was “negligible”. Moreover, the figures for the microsomal CLint at 10 µM in data set [2] (setting [9]) and in [3] (rat liver microsomes) were 7 ± 1 µL/min/mg and 2 µL/min/mg, respectively. The share remaining at 6 h, 5 μM in [4] turned out to be 90 ± 2%; in data set [5] (human plasma, 5 μM, 37 °C), 106%. Also, on D2 receptor, the “D2 receptor pKi” value was 6.4.
